Results: patent US8697720B2 (Crestone, Inc., priority 2006, dated 2014)

Legend:
[1] = test system: C. difficile strain ATCC43255; assay: Toxin A production in high cell density stationary phase C. difficile cultures (ELIFA); format: cell-based; conditions: 4 day old stationary phase cultures, toxin A by ELIFA
Description: C. difficile strain ATCC43255 was grown and maintained anaerobically on CDC anaerobe agar (Remel, Lenexa, Kans.). To test the effect of antibacterial agents on growth, cells were grown anaerobically for 40 h at 35° C. in 96-well brain heart infusion (BHI) broth cultures, with an initial inoculum of 10^6 CFU/mL. To test the effect of antibacterial agents on toxin production at high C. difficile cell densities, the cells were grown anaerobically for 24 h at 35° C. in 96-well brain heart infusion (BHI) broth cultures. Spent medium was then replaced with fresh broth containing MetRS inhibitors and control agents at a concentration range of 0.015-16 μg/mL. After 4 days, growth and cell viability were monitored by optical density measurements at 595 nm and by culture on CDC anaerobe agar, respectively. Culture supernatants were collected, and toxin A was detected by ELIFA (enzyme-linked immuno-flow assay) using an anti toxin A monoclonal antibody (Novus Biologicals, Centennial, Colo.).

C. difficile = assay: C. difficile-infected hamster survival study; format: in vivo
Description: Animal studies were performed to determine the efficacy of MetRS inhibitors for treating C. difficile-infections. The MetRS inhibitors tested were 5-[3-((R)-6,8-Dibromo-chroman-4-ylamino)-propylamino]-4H-thieno[3,2-b]pyridine-7-one (both racemic mixture and the R enantiomer), 5-[3-((R)-8-Bromo-6-chloro-chroman-4-ylamino)-propylamino]-4H-thieno[3,2-b]pyridin-7-one, and 2-(3-{3,5-Dibromo-2-[2-(4-methyl-thiazol-5-yl)-ethoxy]-benzylamino}-propylamino)-1H-quinolin-4-one.
Results were compared to C. difficile-infected hamsters treated with the conventional antibiotic, vancomycin. Infected hamsters were treated with either a solution or suspension of a MetRS inhibitor at 5 to 50 mg/kg or vancomycin at 2.5, 5 or 25 mg/kg. There were eight hamsters per group with the final endpoint of the experiment being survival. Expired hamsters were examined for GI condition.

Structure (SMILES)	concentrations that inhibited toxin production [1] [µg/mL]	further results
Cc1ncsc1CCOc1c(Br)cc(Br)cc1CNCCCNc1cc(=O)c2sccc2[nH]1	0.25	–
CN[C@H](CC(C)C)C(=O)N[C@H]1C(=O)N[C@@H](CC(N)=O)C(=O)N[C@H]2C(=O)N[C@H]3C(=O)N[C@H](C(=O)N[C@H](C(=O)O)c4cc(O)cc(O)c4-c4cc3ccc4O)[C@H](O)c3ccc(c(Cl)c3)Oc3cc2cc(c3O[C@@H]2O[C@H](CO)[C@@H](O)[C@H](O)[C@H]2O[C@H]2C[C@](C)(N)[C@H](O)[C@H](C)O2)Oc2ccc(cc2Cl)[C@H]1O [vancomycin, reference compound]	–	survival with vancomycin (C. difficile; Day 28, vancomycin at 2.5, 5 or 25 mg/kg): 0-10%
Cl.Cl.Cl.O=c1cc(NCCCNC2CCNc3c(Br)cc(Br)cc32)[nH]c2ccsc12 (stereo not drawn) [5-[3-(6,8-Dibromo-1,2,3,4-tetrahydro-quinolin-4-ylamino)-propylamino]-4H-thieno[3,2-b]pyridin-7-one tri-hydrochloride]	0.25	–
Cl.Cl.O=c1cc(NCCCN[C@@H]2CCOc3c(Br)cc(Br)cc32)[nH]c2ccsc12 [R-(+)-5-[3-(6,8-Dibromo-chroman-4-ylamino)-propylamino]-4H-thieno[3,2-b]pyridin-7-one di-hydrochloride]	0.25	–
O=c1cc(NCCCN[C@@H]2CCOc3c(Br)cc(Br)cc32)[nH]c2ccsc12 [5-[3-((R)-6,8-Dibromo-chroman-4-ylamino)-propylamino]-4H-thieno[3,2-b]pyridine-7-one]	–	survival of infected hamsters (C. difficile; MetRS inhibitor at 5 to 50 mg/kg, untreated controls died within 3-4 days): best efficacy
O=c1cc(NCCCNC2CCOc3c(Br)cc(Br)cc32)[nH]c2ccsc12 (stereo not drawn) [5-[3-(6,8-Dibromo-chroman-4-ylamino)-propylamino]-4H-thieno[3,2-b]pyridin-7-one]	0.25	–
